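A five-concentration, 48-hour dose response in 96-well plates underlies each endpoint, interpolated linearly between surrounding concentrations. Here, GI50 denotes the concentration required for 50% inhibition of growth. TGI is the concentration that stops growth completely.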
Columns and labels:
Assay in all cases: inhibition of tumour cell growth, NCI panel, 48 h
OVCAR-4 ovarian = system: OVCAR-4 ovarian
786-0 renal = system: 786-0 renal
HL-60(TB) leukemia = system: HL-60(TB) leukemia
TK-10 renal = system: TK-10 renal
T-47D breast = system: T-47D breast
MDA-MB-435 = system: MDA-MB-435
OVCAR-8 ovarian = system: OVCAR-8 ovarian
HOP-92 NSCLC = system: HOP-92 NSCLC
RXF 393 renal = system: RXF 393 renal
SR leukemia = system: SR leukemia

## CN(C)CCNCCCNc1c2ccccc2nc2cccc([N+](=O)[O-])c12
OVCAR-4 ovarian
  TGI: 0.0208 µM
786-0 renal
  TGI: 0.106 µM
HL-60(TB) leukemia
  TGI: 0.0247 µM
TK-10 renal
  TGI: 0.176 µM
T-47D breast
  TGI: 0.0899 µM
MDA-MB-435
  TGI: 0.0313 µM
OVCAR-8 ovarian
  TGI: 0.0532 µM
HOP-92 NSCLC
  TGI: 0.0346 µM

## CCn1ncc2c(=O)n3ncn(-c4ccc(Br)cc4)c3nc21
OVCAR-4 ovarian
  TGI: > 100 µM
786-0 renal
  TGI: > 100 µM
HL-60(TB) leukemia
  TGI: > 100 µM
TK-10 renal
  TGI: > 100 µM
T-47D breast
  TGI: > 100 µM
MDA-MB-435
  TGI: > 100 µM
OVCAR-8 ovarian
  TGI: > 100 µM
RXF 393 renal
  TGI: > 100 µM
SR leukemia
  TGI: > 100 µM

## C/C(=C\CSCC(N)C(=O)O)CC/C=C(\C)CNc1ccccc1 (stereo not drawn)
OVCAR-4 ovarian
  TGI: > 100 µM
786-0 renal
  TGI: > 100 µM
HL-60(TB) leukemia
  TGI: > 100 µM
TK-10 renal
  TGI: > 100 µM
T-47D breast
  TGI: > 100 µM
MDA-MB-435
  TGI: > 100 µM
OVCAR-8 ovarian
  TGI: > 100 µM
RXF 393 renal
  TGI: > 100 µM
SR leukemia
  TGI: > 100 µM

## O=C([C@H](O)[C@@H](O)c1cccc(Cl)c1)C12CC3CC(CC(C3)C1)C2
OVCAR-4 ovarian
  TGI: 7.49 µM
786-0 renal
  TGI: 3.3 µM
HL-60(TB) leukemia
  TGI: 3.79 µM
TK-10 renal
  TGI: 3.69 µM
T-47D breast
  TGI: 4.21 µM
MDA-MB-435
  TGI: 8.46 µM
OVCAR-8 ovarian
  TGI: 4.69 µM
RXF 393 renal
  TGI: 3.98 µM
SR leukemia
  TGI: > 100 µM

## CCN(CC)C(=S)N/N=C(/c1ccccc1)c1ccccn1
OVCAR-4 ovarian
  TGI: 23.8 µM
786-0 renal
  TGI: 1.19 µM
HL-60(TB) leukemia
  TGI: 1.59 µM
TK-10 renal
  TGI: 29 µM
MDA-MB-435
  TGI: > 47.3 µM
OVCAR-8 ovarian
  TGI: 11.3 µM
RXF 393 renal
  TGI: 8.63 µM
HOP-92 NSCLC
  TGI: > 100 µM
SR leukemia
  TGI: 0.953 µM

## CN(C)CCCNC(=O)N/N=C/c1ccccc1
HL-60(TB) leukemia
  TGI: > 100 µM
TK-10 renal
  TGI: > 100 µM
OVCAR-8 ovarian
  TGI: > 100 µM
RXF 393 renal
  TGI: > 100 µM

## N#CCCN(CCC#N)c1ccc(C(N=Nc2ccccc2)=Nc2ccc(F)cc2)cc1
OVCAR-4 ovarian
  TGI: > 100 µM
786-0 renal
  TGI: > 100 µM
TK-10 renal
  TGI: > 100 µM
T-47D breast
  TGI: > 100 µM
MDA-MB-435
  TGI: > 100 µM
OVCAR-8 ovarian
  TGI: > 100 µM
RXF 393 renal
  TGI: > 100 µM
HOP-92 NSCLC
  TGI: > 100 µM
SR leukemia
  TGI: > 100 µM

## O=C1CSC(c2c[nH]c3ccccc23)N1c1ccc(Cl)cc1Cl (stereo not drawn)
OVCAR-4 ovarian
  TGI: > 100 µM
786-0 renal
  TGI: > 100 µM
HL-60(TB) leukemia
  TGI: > 100 µM
TK-10 renal
  TGI: > 100 µM
T-47D breast
  TGI: > 100 µM
OVCAR-8 ovarian
  TGI: > 100 µM
RXF 393 renal
  TGI: > 100 µM
HOP-92 NSCLC
  TGI: > 100 µM
SR leukemia
  TGI: > 100 µM

## O=C(c1ccco1)N(C(=O)N1CCC(c2ccccc2)CC1)c1ccccc1
786-0 renal
  TGI: > 100 µM
HL-60(TB) leukemia
  TGI: 65.9 µM
TK-10 renal
  TGI: > 100 µM
T-47D breast
  TGI: 64.2 µM
MDA-MB-435
  TGI: > 100 µM
OVCAR-8 ovarian
  TGI: > 100 µM
RXF 393 renal
  TGI: 90.9 µM

## CC(=O)Oc1ccc2c(-c3ccccc3)c(Oc3ccc(Cl)cc3)c(=O)oc2c1
OVCAR-4 ovarian
  TGI: 35.8 µM
786-0 renal
  TGI: 30 µM
HL-60(TB) leukemia
  TGI: > 100 µM
TK-10 renal
  TGI: 26.3 µM
T-47D breast
  TGI: 21.2 µM
OVCAR-8 ovarian
  TGI: 36.8 µM
RXF 393 renal
  TGI: 33.2 µM
HOP-92 NSCLC
  TGI: 22.4 µM
SR leukemia
  TGI: 84.4 µM

## CN1c2ccccc2C2=C(c3ccccc3)CC[C@@H](C(=O)N3C4CC5CC[C@@]4(CS3(=O)=O)C5(C)C)[C@@H]21 (stereo partly drawn)
OVCAR-4 ovarian
  TGI: > 100 µM
786-0 renal
  TGI: > 100 µM
TK-10 renal
  TGI: > 100 µM
T-47D breast
  TGI: > 100 µM
MDA-MB-435
  TGI: > 100 µM
OVCAR-8 ovarian
  TGI: > 100 µM
HOP-92 NSCLC
  TGI: > 100 µM
SR leukemia
  TGI: > 100 µM

## O=C1c2cc3c(cc2-c2c1c1ccc(Cl)cc1c(=O)n2CCCn1ccnc1)OCO3
OVCAR-4 ovarian
  GI50: 0.0525 µM
  TGI: > 100 µM
HL-60(TB) leukemia
  GI50: < 0.01 µM
  TGI: 1.93 µM
TK-10 renal
  GI50: 0.54 µM
  TGI: > 100 µM
T-47D breast
  GI50: < 0.01 µM
  TGI: > 100 µM
OVCAR-8 ovarian
  GI50: 0.0116 µM
  TGI: > 100 µM
RXF 393 renal
  GI50: < 0.01 µM
  TGI: 0.0518 µM
HOP-92 NSCLC
  GI50: 0.0229 µM
  TGI: 0.491 µM
SR leukemia
  GI50: < 0.01 µM
  TGI: 0.0677 µM

## CC1=C(C)SC(=C2Sc3c(n(C)c(=O)n(C)c3=O)S2)S1
OVCAR-4 ovarian
  TGI: 58.3 µM
786-0 renal
  TGI: 34.8 µM
HL-60(TB) leukemia
  TGI: > 100 µM
TK-10 renal
  TGI: 74.7 µM
T-47D breast
  TGI: > 100 µM
MDA-MB-435
  TGI: > 100 µM
OVCAR-8 ovarian
  TGI: 64.5 µM
RXF 393 renal
  TGI: > 100 µM
HOP-92 NSCLC
  TGI: > 100 µM

## O=C1Nc2cc(F)ccc2C1=O
OVCAR-4 ovarian
  TGI: > 100 µM
786-0 renal
  TGI: > 100 µM
HL-60(TB) leukemia
  TGI: > 100 µM
TK-10 renal
  TGI: > 100 µM
OVCAR-8 ovarian
  TGI: > 100 µM
RXF 393 renal
  TGI: > 100 µM
HOP-92 NSCLC
  TGI: > 100 µM

## Cc1cc(-c2cc(C(C)(C)C)c(O)c(C(C)(C)C)c2)c(C)cc1-c1cc(C(C)(C)C)c(O)c(C(C)(C)C)c1
OVCAR-4 ovarian
  TGI: > 100 µM
786-0 renal
  TGI: > 100 µM
HL-60(TB) leukemia
  TGI: > 100 µM
TK-10 renal
  TGI: > 100 µM
T-47D breast
  TGI: > 100 µM
MDA-MB-435
  TGI: 32.7 µM
OVCAR-8 ovarian
  TGI: > 100 µM
HOP-92 NSCLC
  TGI: 38.2 µM
SR leukemia
  TGI: > 100 µM

## CC(C)(C)c1ccnc(N=C2N=C(Nc3cc(C(C)(C)C)ccn3)c3ccccc32)c1
OVCAR-4 ovarian
  TGI: > 100 µM
786-0 renal
  TGI: 43.9 µM
HL-60(TB) leukemia
  TGI: > 100 µM
TK-10 renal
  TGI: 46.1 µM
OVCAR-8 ovarian
  TGI: 41.7 µM
RXF 393 renal
  TGI: 54.9 µM
HOP-92 NSCLC
  TGI: 47.1 µM
SR leukemia
  TGI: > 100 µM

## CC[C@H](NC(=O)OC(C)(C)C)C(=O)NCP(=O)(OCc1ccc([N+](=O)[O-])cc1)OCc1ccc([N+](=O)[O-])cc1
OVCAR-4 ovarian
  TGI: > 100 µM
786-0 renal
  TGI: > 100 µM
HL-60(TB) leukemia
  TGI: 62.2 µM
TK-10 renal
  TGI: > 100 µM
T-47D breast
  TGI: > 100 µM
MDA-MB-435
  TGI: > 100 µM
OVCAR-8 ovarian
  TGI: > 100 µM
HOP-92 NSCLC
  TGI: > 100 µM
SR leukemia
  TGI: > 100 µM

## COc1cc2c(c(OC)c1)[C@H](C)N(Cc1ccccc1)C(C)C2 (stereo partly drawn)
786-0 renal
  TGI: > 100 µM
HL-60(TB) leukemia
  TGI: 24.8 µM
TK-10 renal
  TGI: > 100 µM
T-47D breast
  TGI: > 100 µM
MDA-MB-435
  TGI: 37.8 µM
OVCAR-8 ovarian
  TGI: > 100 µM
SR leukemia
  TGI: > 100 µM

## Cc1ccc(C)c(COCCOCn2cc(N3CCOCC3)c(=O)[nH]c2=O)c1
786-0 renal
  TGI: > 100 µM
HL-60(TB) leukemia
  TGI: > 100 µM
TK-10 renal
  TGI: > 100 µM
T-47D breast
  TGI: > 100 µM
MDA-MB-435
  TGI: > 100 µM
OVCAR-8 ovarian
  TGI: > 100 µM
RXF 393 renal
  TGI: > 100 µM
HOP-92 NSCLC
  TGI: > 100 µM
SR leukemia
  TGI: > 100 µM

## CCC1(CC)C(=O)N(C(=O)c2cc(OC)c(OC)c(OC)c2)N(C(=O)c2cc(OC)c(OC)c(OC)c2)C1=O
OVCAR-4 ovarian
  TGI: > 50 µM
786-0 renal
  TGI: > 50 µM
HL-60(TB) leukemia
  TGI: > 50 µM
TK-10 renal
  TGI: > 50 µM
T-47D breast
  TGI: > 50 µM
MDA-MB-435
  TGI: > 50 µM
OVCAR-8 ovarian
  TGI: > 50 µM
RXF 393 renal
  TGI: > 50 µM

## C[As+](C)(c1ccc(Br)c([N+](=O)[O-])c1)c1ccc(Br)c([N+](=O)[O-])c1.O=[N+]([O-])O
OVCAR-4 ovarian
  TGI: > 100 µM
786-0 renal
  TGI: > 100 µM
TK-10 renal
  TGI: > 100 µM
T-47D breast
  TGI: > 100 µM
MDA-MB-435
  TGI: > 100 µM
OVCAR-8 ovarian
  TGI: > 100 µM
RXF 393 renal
  TGI: > 100 µM
HOP-92 NSCLC
  TGI: > 100 µM
SR leukemia
  TGI: > 100 µM

## NCCCCNCCCN1CCOC1=O
786-0 renal
  TGI: > 100 µM
HL-60(TB) leukemia
  TGI: > 100 µM
TK-10 renal
  TGI: > 100 µM
T-47D breast
  TGI: > 100 µM
MDA-MB-435
  TGI: > 100 µM
OVCAR-8 ovarian
  TGI: > 100 µM
SR leukemia
  TGI: > 100 µM
